Measurements reported in patent publication US20050208124A1, “Drugs containing riboflavin-type compounds” (priority 2003, published 2005).
Where two headings read alike, the source gives them in different places.

Legend:
[1] = system: SEB-induced shock mice; settings: mouse, in vivo
[2] = system: TNF-α-stimulated mouse peritoneal macrophage; assay: IL-6 production from TNF-α-stimulated mouse peritoneal macrophage; assay type: cell-based; settings: 10 ng/mL TNF-α, 24 h
[3] = system: human vascular endothelial cells (HUEC); assay: Active oxygen production in endothelial cells under high glucose load; assay type: cell-based; settings: 30 mM glucose load, control 91.2, glucose alone 140.5
Procedure: Next, glucose was added to a glucose concentration of 30 mM on each plate, and the cells were CO2 incubated for 1 hour at 37° C. After completion of culture the cells were collected and intracellular active oxygen was measured by FACS Calibur (Flow Cytometry System; Becton Dickinson Japan) using […] (intracellular active oxygen measurement kit; […] Pharma).

[4] = system: HWEC cells; assay: IL-8 production in endothelial cells under high glucose load; assay type: cell-based, human; settings: 30 mM glucose load, 2 h, glucose alone 1196 pg/mL
[5] = system: LPS-induced shock mice; settings: male ICR mice, LPS 12 mg/kg i.v., 20 mg/kg i.v. 6 h after LPS
[6] = system: AAPH-intoxication mice; assay: AAPH-intoxication mouse model: survival; settings: male ICR mice, AAPH 125 mg/kg i.p., 7 days
[7] = system: TNF-α-induced shock mice; assay: TNF-α-induced shock mouse model: survival; settings: human TNF-α + D-galactosamine i.p., 20 mg/kg i.v. immediately after, 7 days

Cc1cc2nc3c(=O)[nH]c(=O)nc-3n(C[C@H](O)[C@H](O)[C@H](O)COP(=O)([O-])O)c2cc1C.[Na+] [5′-FMN-Na, riboflavin-5′-phosphate sodium ester]
plasma IL-6 concentration [1]: suppression effect | plasma INF-γ concentration [1]: suppression effect | plasma MIP-2 concentration [1]: suppression effect | TNF-α-induced IL-6 production ([2]; 1.56 μg/mL 5′-FMN-Na): suppressed | TNF-α-induced IL-6 production ([2]; 25 μg/mL 5′-FMN-Na): suppressed | fluorescent strength (mean fluorescence), intracellular active oxygen ([3]; 0.1 μg/mL): 114.2 | fluorescent strength (mean fluorescence), intracellular active oxygen ([3]; 0.39 μg/mL): 125.0 | fluorescent strength (mean fluorescence), intracellular active oxygen ([3]; 1.56 μg/mL): 111.9 | fluorescent strength (mean fluorescence), intracellular active oxygen ([3]; 6.25 μg/mL): 89.5 | IL-8 concentration in the medium ([4]; 6.25 μg/mL): 297 pg/mL | IL-8 concentration in the medium ([4]; 25 μg/mL): 168 pg/mL | plasma GM-CSF concentration ([5]; 21 h after LPS (second peak)): tended to depress | plasma MIP-2 concentration ([5]; after 9 h, maintained after 21 h): had declined | plasma IL-1β concentration ([5]; between 9 and 12 h after LPS, vs control): decreased rapidly | plasma NO level (total NO2 and NO3) ([5]; between 9 and 18 h): no suppression effect | plasma INF-γ concentration ([5]; between 9 and 18 h after LPS, vs control): declined rapidly | plasma NO level (total NO2 and NO3) ([5]; between 21 and 24 h): had a suppression effect | plasma IL-6 concentration ([5]; maintained after 21 h, vs control): rapid decline | plasma MCP-1 concentration ([5]; maintained until 21 h after LPS): depressed | plasma IL-10 concentration ([5]; second peak (21 h after LPS)): depressed | plasma TNF-α concentration ([5]; second peak (21 h after LPS)): depressed | Survival number ([6]; 20 mg/kg i.p. (−24 h, 0)): 7/10 | Survival rate (%) ([6]; 20 mg/kg i.p. (−24 h, 0), P < 0.05 vs. Saline): 70% | Survival number ([6]; 20 mg/kg i.v. (−24 h, 0, +1 h)): 6/10 | Survival rate (%) ([6]; 20 mg/kg i.v. (−24 h, 0, +1 h)): 60% | Survival number ([7]; female ICR mice): 7/10 | Survival rate (%) ([7]; female ICR mice): 70% | Survival number ([7]; male BALB/c mice): 6/10 | Survival rate (%) ([7]; male BALB/c mice, P < 0.05 vs. Saline, 20 mg/kg): 60%
